# Measured values published in PMC8779255, “Determining the Anticancer Activity of Sphingosine Kinase Inhibitors Containing Heteroatoms in Their Tail Structure” (Pharmaceutics, 2022).
# Read-outs that look alike come from different tables or passages of the source.
# Legend:
# Format in all cases: cell-based, human
# [1] = tested on: HT29 cells; experiment: MTT cell viability assay; conditions: for IC50: Homo sapiens, HT-29, read-out: relative IC50 (cell viability)
# Description: (§1) The HT29 and HCT116 cells (human colon cancer), AGS (human gastric cancer), and MIA PaCa-2 cells (human pancreatic cancer) were purchased from Korean Cell Line Bank (Seoul, Korea). Cancer cells were maintained in RPMI (HT29 and AGS) and DMEM (HCT116 and MIA PaCa-2) culture media supplemented with 10% fetal bovine serum (FBS) and 100 U/mL penicillin and streptomycin at 37 °C in a 95% humidified incubator containing 5% CO2. The cytotoxic effect of the compounds was assessed using the MTT cell viability assay. Briefly, 3 × 10^3 cells/well were grown in 96-well plates for 24 h. After treatment with desired concentration of respective compounds for 24 h or 48 h, the EZ-CYTOTOX (10 µM) reagent was added in each well and incubated for 90 min. The absorbance was measured at 450 nm wavelength using Skanlt software 5.0 (Thermo Scientific, Waltham, MA, USA) installed on a Multiskan GO (Thermo Scientific, Waltham, MA, USA) spectrophotometer. Each experiment was independently repeated three times (n = 12).
# [2] = tested on: HCT116 cells; experiment: MTT cell viability assay; conditions: for IC50: Homo sapiens, HCT-116, read-out: relative IC50 (cell viability)
# Description: as §1
# [3] = tested on: S1P in HCT116 cells; experiment: S1P ELISA of cell lysate
# Description: The cellular levels of S1P, sphingosine, and ceramide were detected using an ELISA assay kit (MyBioSource, Inc., San Diego, CA, USA) according to the manufacturer’s instruction. For S1P ELISA, 100 µL cell lysates or standards were added in pre-coated ELISA wells, incubated for 90 min at 37 °C, and treated with 1x biotinylated anti S1P antibody for 1 h. Following treatment of HRP conjugated secondary antibody, the substrate was added and allowed to change the color for 15 min; then, the stop solution was added and absorbance was measured at 450 nm using a Multiskan GO (Thermo Scientific, Waltham, MA, USA) microplate spectrophotometer. […] A stop solution (50 µL) was added to each well, and optical density was measured at 450 nm using a microplate reader. […] After incubation, 50 µL substrate A and B was added to the plate and incubated at 37 °C for 20 min; a stop solution (50 µL) was added to each well and optical density was determined at 450 nm using a microplate reader. The concentration of S1P, sphingosine, and ceramide were calculated as ng/mL using respective standard curves constructed by Skanlt microplate reader software 5.0 (Thermo Scientific, Waltham, MA, USA).
# [4] = tested on: SK1 in HCT116 cells; experiment: Western blotting of SK1 protein expression; conditions: HCT116, 10 and 20 µM, 24 h, vs control cells
# Description: The cell lysate was prepared after successive treatment using mammalian protein extraction buffer (Organic buffer + 10 mM NaCl + detergent pH 7.5) mixed with 1% protease/phosphatase inhibitor cocktail; protein was quantified with BCA assay, boiled at 95 °C for 10 min by adding sample loading buffer, separated using SDS-PAGE, and transferred into methanol-activated PVDF membrane. Primary antibodies were probed overnight in PVDF membrane at 4 °C and […] with subsequent HRP anti-mouse and anti-rabbit secondary antibodies at room temperature. Then, membranes were washed with TBST buffer, and images were detected by Amersham Imager 680 (GE Healthcare; Leiden, WZ, The Netherlands) using ECL solution. Band intensities were analyzed and quantified using Image J software (version 1.53i).
smiles,measurement,setting,value
"CCCCCCCOc1ccc(CCN2CCN(CCO)CC2)cc1 [Compound 10, 2-(4-(4-(Heptyloxy)phenethyl)piperazin-1-yl)ethanol]",cytotoxic effect (cell viability),"[1]; HT29, 20 and 40 µM, 24 h, Figure 2A",more cytotoxic than RB005 and 5-FU
same,IC50,"[1]; HT29, 24 h treatment",10.5 µM
same,IC50,"[1]; HT29, 48 h treatment, 2.5–40 µM",6.22 µM
same,"cytotoxic effect, comparison","[2]; HCT116, 10, 20 and 40 µM, Supplementary Figure S1C","higher than compounds 11, 13, and PF-543"
same,cytotoxic effect (cell viability),"[2]; HCT116, 20 and 40 µM, 24 h, Figure 2B",significant cytotoxic effects in both 20 and 40 µM concentrations
same,IC50,"[2]; HCT116, 24 h treatment",10.9 µM
same,IC50,"[2]; HCT116, 48 h treatment, 2.5–40 µM",8.69 µM
same,S1P level decrease,[3],42%
same,S1P level,"[3]; HCT116, 10 and 20 µM, 24 h, vs nontreated control",significantly reduces
same,SK1 protein expression level,[4],does not affect
